According to US20260176320A1, “MODULATORS OF G-PROTEIN COUPLED RECEPTORS” (priority 2018, published 2026):
Read-outs that look alike come from different tables or passages of the source. Square brackets hold non-standard residues; d marks the D form. Peptide text beside a SMILES is read from it. * marks the point of attachment. X5 = O=C(CSCC(=O)*)NCCN1CCCC1=O; Aib = CC(C)(N)C(=O)O

Legend:
Assay type in all cases: cell-based
GIP-R = molecular target: T1, GIP-R (Homo sapiens, UniProt P48546); experiment: HitHunter cAMP assay (GIP-R); conditions: cAMP; for Emax: read-out: (Emax) GIP-R
T1 sequence (P48546 22-466): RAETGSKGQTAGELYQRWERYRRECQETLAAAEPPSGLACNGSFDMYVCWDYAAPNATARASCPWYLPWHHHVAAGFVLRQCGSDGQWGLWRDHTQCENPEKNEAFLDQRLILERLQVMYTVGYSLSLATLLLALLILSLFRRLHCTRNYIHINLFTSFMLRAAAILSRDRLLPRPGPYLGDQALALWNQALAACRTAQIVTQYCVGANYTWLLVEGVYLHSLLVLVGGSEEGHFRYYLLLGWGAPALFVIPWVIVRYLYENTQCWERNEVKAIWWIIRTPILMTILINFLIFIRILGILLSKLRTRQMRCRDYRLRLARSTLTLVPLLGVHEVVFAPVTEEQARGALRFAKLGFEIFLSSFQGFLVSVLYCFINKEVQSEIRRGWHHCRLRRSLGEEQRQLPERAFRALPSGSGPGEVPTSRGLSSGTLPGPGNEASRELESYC
Procedure, shortened: (§1)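 Cells were resuspended in HBSS plus HEPES, IBMX (625 μM) and BSA, then dispensed with antibody at 10,000 per well. Agonists followed as 22-point twofold series, 30 min at room temperature. Antibody reagent and detection steps ran 1 h and overnight in the dark before luminescence.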

GLP-1R [1] = molecular target: T2, GLP-1R (Homo sapiens, UniProt P43220); experiment: PathHunter β-arrestin assay
Procedure, shortened: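 Agonist concentration–response (22 points, 2-fold steps, duplicates) was run on cells plated the previous day in BSA-supplemented (0.2%) medium. Stimulation lasted 90 min at 37 °C, followed by a 3 h dark incubation with detection reagent at room temperature and a luminescence read.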

GLP-1R [2] = molecular target: T2, GLP-1R; experiment: HitHunter cAMP assay (GLP-1R); conditions: cAMP; for Emax: read-out: (Emax) GLP-1R
Procedure, shortened: as §1

[3] = Table 3, read-out: EC50 GIP-R/nM
[4] = Table 3A, read-out: EC50 GIP-R/nM
[5] = PathHunter β-arrestin assay, read-out: β-arrestin activity EC50
[6] = Table 3, read-out: EC50 GLP-1R/nM
[7] = Table 3A, read-out: EC50 GLP-1R/nM

T2 sequence (P43220 24-463): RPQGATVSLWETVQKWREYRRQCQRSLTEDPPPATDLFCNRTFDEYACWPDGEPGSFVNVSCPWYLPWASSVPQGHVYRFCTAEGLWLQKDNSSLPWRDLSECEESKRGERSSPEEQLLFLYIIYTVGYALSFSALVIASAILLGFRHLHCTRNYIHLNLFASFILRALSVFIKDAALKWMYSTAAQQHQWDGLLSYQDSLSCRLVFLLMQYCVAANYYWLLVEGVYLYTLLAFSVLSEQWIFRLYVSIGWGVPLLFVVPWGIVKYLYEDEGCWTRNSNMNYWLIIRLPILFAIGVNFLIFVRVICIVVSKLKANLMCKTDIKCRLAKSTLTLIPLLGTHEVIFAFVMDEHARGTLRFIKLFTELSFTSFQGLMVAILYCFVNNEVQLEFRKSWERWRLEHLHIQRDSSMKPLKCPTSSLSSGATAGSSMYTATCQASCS

| SMILES | EC50 (GIP-R; EC50 GIP-R/nM, Table 3) [nM] | EC50 (GIP-R; EC50 GIP-R/nM, Table 3A) [nM] | Emax (GIP-R; Table 3) [%] | Emax (GIP-R; Table 3A) [%] | EC50 (GLP-1R [1]) [nM] | EC50 (GLP-1R [2]; EC50 GLP-1R/nM, Table 3) [nM] | EC50 (GLP-1R [2]; EC50 GLP-1R/nM, Table 3A) [nM] | Emax (GLP-1R [2]; Table 3) [%] | Emax (GLP-1R [2]; Table 3A) [%] | EC50 (GIP-R; [3]) [nM] | EC50 (GIP-R; [4]) [nM] | EC50 (GLP-1R [1]; [5]) [nM] | EC50 (GLP-1R [2]; [6]) [nM] | EC50 (GLP-1R [2]; [7]) [nM] | Emax at 1 µM (GIP-R; read-out: (Emax) GIP-R at 1 μM, Table 3, at 1 μM) [%] | EC50 (GIP-R; read-out: EC50 GIP-R/nM, Table 3A) [nM] |
| --- | --- | --- | --- | --- | --- | --- | --- | --- | --- | --- | --- | --- | --- | --- | --- | --- |
| CCCCCCCCCCCCCCCC(=O)N[C@@H](CCC(=O)NCCCC[C@H](NC(=O)[C@H](CO)NC(=O)[C@@H]1CCCN1C(=O)[C@@H]1CCCN1C(=O)[C@@H]1CCCN1C(=O)[C@H](C)NC(=O)CNC(=O)[C@H](CO)NC(=O)[C@H](CO)NC(=O)[C@@H]1CCCN1C(=O)CNC(=O)CNC(=O)[C@H](C)NC(=O)[C@H](CC(C)C)NC(=O)[C@H](CC(C)C)NC(=O)[C@H](Cc1c[nH]c2ccccc12)NC(=O)[C@H](CC(N)=O)NC(=O)[C@@H](NC(=O)[C@H](Cc1ccccc1)NC(=O)[C@H](CCC(=O)O)NC(=O)C(C)(C)NC(=O)[C@H](C)NC(=O)[C@H](C)NC(=O)[C@H](CCC(N)=O)NC(=O)[C@H](CCCCN)NC(=O)[C@H](CC(=O)O)NC(=O)[C@H](CC(C)C)NC(=O)[C@H](Cc1ccc(O)cc1)NC(=O)[C@@H](NC(=O)[C@H](CO)NC(=O)[C@H](Cc1ccc(O)cc1)NC(=O)[C@H](CC(=O)O)NC(=O)[C@H](CO)NC(=O)[C@@H](NC(=O)[C@H](Cc1ccccc1)NC(=O)[C@@H](NC(=O)CNC(=O)[C@H](CCC(=O)O)NC(=O)CSCC(=O)NCCN1C(=O)CC[C@@H]1CO)[C@@H](C)O)[C@@H](C)O)[C@@H](C)CC)C(C)C)C(N)=O)C(=O)O [Compound 43] | 1 to 10 | 1 to 10 | 60 to 73 | 60 to 73 | > 1000 | 0.1 to 1 | 0.1 to 1 | 93 to 97 | 93 to 97 |  |  |  |  |  |  |  |
| CC[C@H](C)[C@H](NC(=O)[C@H](CO)NC(=O)[C@H](Cc1ccc(O)cc1)NC(=O)[C@H](CC(=O)O)NC(=O)[C@H](CO)NC(=O)[C@@H](NC(=O)[C@H](Cc1ccccc1)NC(=O)[C@@H](NC(=O)CNC(=O)[C@H](CCC(=O)O)NC(=O)C1(C(=O)NCCN2C(=O)CSC2=O)CC1)[C@@H](C)O)[C@@H](C)O)C(=O)N[C@@H](Cc1ccc(O)cc1)C(=O)N[C@@H](CC(C)C)C(=O)N[C@@H](CC(=O)O)C(=O)N[C@@H](CCCCN)C(=O)N[C@@H](CCC(N)=O)C(=O)N[C@@H](C)C(=O)N[C@@H](C)C(=O)NC(C)(C)C(=O)N[C@@H](CCC(=O)O)C(=O)N[C@@H](Cc1ccccc1)C(=O)N[C@H](C(=O)N[C@@H](CC(N)=O)C(=O)N[C@@H](Cc1c[nH]c2ccccc12)C(=O)N[C@@H](CC(C)C)C(=O)N[C@@H](CC(C)C)C(=O)N[C@@H](C)C(=O)NCC(=O)NCC(=O)N1CCC[C@H]1C(=O)N[C@@H](CO)C(=O)N[C@@H](CO)C(=O)NCC(=O)N[C@@H](C)C(=O)N1CCC[C@H]1C(=O)N1CCC[C@H]1C(=O)N1CCC[C@H]1C(=O)N[C@@H](CO)C(=O)N[C@@H](CCCCN)C(N)=O)C(C)C [Compound 135] |  |  | 15 to 22 | 15 to 22 |  |  |  | 106 to 111 | 106 to 111 | 10 to 100 | 10 to 1000 | > 1000 | < 1 | < 1 |  |  |
| CCCCCCCCCCCCCCCC(=O)N[C@@H](CCC(=O)NCCCC[C@H](NC(=O)[C@H](CO)NC(=O)[C@@H]1CCCN1C(=O)[C@@H]1CCCN1C(=O)[C@@H]1CCCN1C(=O)[C@H](C)NC(=O)CNC(=O)[C@H](CO)NC(=O)[C@H](CO)NC(=O)[C@@H]1CCCN1C(=O)CNC(=O)CNC(=O)[C@H](C)NC(=O)[C@H](CC(C)C)NC(=O)[C@H](CC(C)C)NC(=O)[C@H](Cc1c[nH]c2ccccc12)NC(=O)[C@H](CC(N)=O)NC(=O)[C@@H](NC(=O)[C@H](Cc1ccccc1)NC(=O)[C@H](CCC(=O)O)NC(=O)C(C)(C)NC(=O)[C@H](C)NC(=O)[C@H](C)NC(=O)[C@H](CCC(N)=O)NC(=O)[C@H](CCCCN)NC(=O)[C@H](CC(=O)O)NC(=O)[C@H](CC(C)C)NC(=O)[C@H](Cc1ccc(O)cc1)NC(=O)[C@@H](NC(=O)[C@H](CO)NC(=O)[C@H](Cc1ccc(O)cc1)NC(=O)[C@H](CC(=O)O)NC(=O)[C@H](CO)NC(=O)[C@@H](NC(=O)[C@H](Cc1ccccc1)NC(=O)[C@@H](NC(=O)CNC(=O)[C@H](CCC(=O)O)NC(=O)[C@H](C)NC(=O)CN1CCCCC1=O)[C@@H](C)O)[C@@H](C)O)[C@@H](C)CC)C(C)C)C(N)=O)C(=O)O [Compound 211] |  |  |  | 50 |  |  |  |  | 91 |  | 0.1 to 1 | 10 to 1000 |  | < 0.1 |  |  |
| CC[C@H](C)[C@H](NC(=O)[C@H](CO)NC(=O)[C@H](Cc1ccc(O)cc1)NC(=O)[C@H](CC(=O)O)NC(=O)[C@H](CO)NC(=O)[C@@H](NC(=O)[C@H](Cc1ccccc1)NC(=O)[C@@H](NC(=O)CNC(=O)[C@H](CCC(=O)O)NC(=O)CSCC(=O)NCCN1CCCC1=O)[C@@H](C)O)[C@@H](C)O)C(=O)N[C@@H](Cc1ccc(O)cc1)C(=O)N[C@@H](CC(C)C)C(=O)N[C@@H](CC(=O)O)C(=O)N[C@@H](CCCNC(=N)N)C(=O)N[C@@H](CCC(N)=O)C(=O)N[C@@H](C)C(=O)N[C@@H](C)C(=O)NC(C)(C)C(=O)N[C@@H](CCC(=O)O)C(=O)N[C@@H](Cc1ccccc1)C(=O)N[C@H](C(=O)N[C@@H](CC(N)=O)C(=O)N[C@@H](Cc1c[nH]c2ccccc12)C(=O)N[C@@H](CC(C)C)C(=O)N[C@@H](CC(C)C)C(=O)N[C@@H](C)C(=O)NCC(=O)NCC(=O)N1CCC[C@H]1C(=O)N[C@@H](CO)C(=O)N[C@@H](CO)C(=O)NCC(=O)N[C@@H](C)C(=O)N1CCC[C@H]1C(=O)N1CCC[C@H]1C(=O)N1CCC[C@H]1C(=O)N[C@@H](CO)C(N)=O)C(C)C [Compound 189] (X5-EGTFTSDYSIYLDRQAA[Aib]EFVNWLLAGGPSSGAPPPS-NH2) |  |  |  |  |  |  |  | 94 | 94 | > 1000 | > 1000 | > 1000 | 1 to 10 | 1 to 10 | 4.5 |  |
| CCCCCCCCCCCCCCCC(=O)N[C@@H](CCC(=O)NCCCC[C@H](NC(=O)[C@H](CO)NC(=O)[C@@H]1CCCN1C(=O)[C@@H]1CCCN1C(=O)[C@@H]1CCCN1C(=O)[C@H](C)NC(=O)CNC(=O)[C@H](CO)NC(=O)[C@H](CO)NC(=O)[C@@H]1CCCN1C(=O)CNC(=O)CNC(=O)[C@H](C)NC(=O)[C@H](CC(C)C)NC(=O)[C@H](CC(C)C)NC(=O)[C@H](Cc1c[nH]c2ccccc12)NC(=O)[C@H](CC(N)=O)NC(=O)[C@@H](NC(=O)[C@H](Cc1ccccc1)NC(=O)[C@H](CCC(=O)O)NC(=O)C(C)(C)NC(=O)[C@H](C)NC(=O)[C@H](C)NC(=O)[C@H](CCC(N)=O)NC(=O)[C@H](CCCCN)NC(=O)[C@H](CC(=O)O)NC(=O)[C@H](CC(C)C)NC(=O)[C@H](Cc1ccc(O)cc1)NC(=O)[C@@H](NC(=O)[C@H](CO)NC(=O)[C@H](Cc1ccc(O)cc1)NC(=O)[C@H](CC(=O)O)NC(=O)[C@H](CO)NC(=O)[C@@H](NC(=O)[C@H](Cc1ccccc1)NC(=O)[C@@H](NC(=O)CNC(=O)[C@H](CCC(=O)O)NC(=O)CSCC(=O)NCCN1CCCCS1(=O)=O)[C@@H](C)O)[C@@H](C)O)[C@@H](C)CC)C(C)C)C(N)=O)C(=O)O [Compound 40] | 1 to 10 |  | 14 to 34 | 14 to 34 | > 1000 | 0.1 to 1 | 0.1 to 1 | 101 to 105 | 101 to 105 |  |  |  |  |  |  | 1 to 1000 |
| CCCCCCCCCCCCCCCC(=O)N[C@@H](CCC(=O)NCCCC[C@H](NC(=O)[C@H](CO)NC(=O)[C@@H]1CCCN1C(=O)[C@@H]1CCCN1C(=O)[C@@H]1CCCN1C(=O)[C@H](C)NC(=O)CNC(=O)[C@H](CO)NC(=O)[C@H](CO)NC(=O)[C@@H]1CCCN1C(=O)CNC(=O)CNC(=O)[C@H](C)NC(=O)[C@H](CC(C)C)NC(=O)[C@H](CC(C)C)NC(=O)[C@H](Cc1c[nH]c2ccccc12)NC(=O)[C@H](CC(N)=O)NC(=O)[C@@H](NC(=O)[C@H](Cc1ccccc1)NC(=O)[C@H](CCC(=O)O)NC(=O)C(C)(C)NC(=O)[C@H](C)NC(=O)[C@H](C)NC(=O)[C@H](CCC(N)=O)NC(=O)[C@H](CCCCN)NC(=O)[C@H](CC(=O)O)NC(=O)[C@H](CC(C)C)NC(=O)[C@H](Cc1ccc(O)cc1)NC(=O)[C@@H](NC(=O)[C@H](CO)NC(=O)[C@H](Cc1ccc(O)cc1)NC(=O)[C@H](CC(=O)O)NC(=O)[C@H](CO)NC(=O)[C@@H](NC(=O)[C@H](Cc1ccccc1)NC(=O)[C@@H](NC(=O)CNC(=O)[C@H](CCC(=O)O)NC(=O)CSCC(=O)NCCn1ccc(=O)[nH]c1=O)[C@@H](C)O)[C@@H](C)O)[C@@H](C)CC)C(C)C)C(N)=O)C(=O)O [Compound 239] |  | 10 to 100 |  | 46 | > 1000 |  | 0.1 to 1 |  | 100 |  |  |  |  |  |  |  |
